pIC50: −log10 of the molar value. Read-outs that look alike come from different tables or passages of the source. Bounds are passed on as bounds.

Experiment [1] concerns the target Ba/F3-ERBB2-A775_G776insYVMA cells (Homo sapiens, UniProt P04626, DUP772-775, cells depend on it). Kind of experiment: Ba/F3 cell survival assay, ERBB2 A775_G776insYVMA. Particulars: without IL-3, without EGF, 48 h; read-out: BA/F3 (ERBB2 A775_G776 insYVMA) IC50. In kind it is cell-based. The procedure: (§1) 293T cells from ATCC were transfected with pBABEpuro expression constructs for mutant EGFR (V769_D770insASV, D770_N771insNPG, N771_P772insH, H773_V774insNPH, E746_A750del, L858R, D770_N771insSVD C797S, E746_A750del C797S, L858R C797S, L861Q) or mutant ERBB2 (A775_G776insYVMA) and pCL-Eco packaging vector using Fugene-6 transfection reagent from Promega. Plates were incubated at 37° C. for 48 h. Retrovirus was harvested by filtering the media supernatant through a 0.45 μm filter.
(§2) Ba/F3 cells purchased from DSMZ were grown in RPMI+10% FBS+10 ng/mL IL-3 and infected with filtered retroviral supernatant at a 1:2 dilution. Polybrene was added to a concentration of 8 μg/mL, plates were spun for 90 min, and incubated overnight at 37° C. 2 μg/mL puromycin was added to the infected cells 24 h after infection and cells were continually grown in the presence of puromycin and 10 ng/mL IL-3. Following stably expressing Ba/F3 cell lines were generated: Ba/F3-EGFR-V769_D770insASV, Ba/F3-EGFR-D770_N771insNPG, Ba/F3-EGFR-N771_P772insH, Ba/F3-EGFR-H773_V774insNPH, Ba/F3-EGFR-E746_A750del, Ba/F3-EGFR-L858R, Ba/F3-EGFR-D770_N771 insSVD C797S, Ba/F3-EGFR-E746_A750del C797S, Ba/F3-EGFR-L858R C797S, Ba/F3-EGFR L861Q and Ba/F3-ERBB2-A775_G776insYVMA (Ba/F3-vector-control).
(§3) For cell survival assays, Ba/F3 cells were grown to a density of 1-2 million cells per mL, spun down and resuspended in media without IL-3, and replated at a concentration 200,000-500,000 cells per mL. The cells ectopically expressing WT EGFR plated with 10 ng/mL Millipore Culture grade EGF and Ba/F3 cells containing mutant EGFR or Mutant ERBB2 were cultivated without EGF. The cells ectopically expressing pBABEpuro empty vector were plated with 10 ng/mL IL-3.
(§4) 2 days later, cells were plated in 50 μL in a 384 well plate at a concentration of 4000 cells per well for cells assayed in the absence of IL-3 and 2000 cells per well for cells assayed in the presence of IL-3. 100 nL of compound was added to each well using a 100 nL pin head, and plates were incubated at 37° C. for 48 h.
(§5) Cell viability was measured by adding 20 μL of Cell Titer-Glo Luminescent Cell Viability Reagent diluted 1:3 in PBS. Plates were sealed with Perkin Elmer Top-Seal, inverted several times to mix, and immediately centrifuged at 1000 rpm for 2 min. Plates were incubated in low light conditions for 8-10 min and luminescence was measured.

The target in experiment [2] is Ba/F3-EGFR-L858R C797S cells (Homo sapiens, UniProt P00533, C797S/L858R, cells depend on it). Kind of experiment: Ba/F3 cell survival assay, EGFR L858R C797S. In kind it is cell-based. The following applies: without IL-3, without EGF, 48 h; read-out: BA/F3 (EGFR L858R C797S) IC50. The procedure: as §1, §2, §3, §4, §5
Sequence of Ba/F3-EGFR-L858R C797S cells (P00533 whole entry C797S/L858R): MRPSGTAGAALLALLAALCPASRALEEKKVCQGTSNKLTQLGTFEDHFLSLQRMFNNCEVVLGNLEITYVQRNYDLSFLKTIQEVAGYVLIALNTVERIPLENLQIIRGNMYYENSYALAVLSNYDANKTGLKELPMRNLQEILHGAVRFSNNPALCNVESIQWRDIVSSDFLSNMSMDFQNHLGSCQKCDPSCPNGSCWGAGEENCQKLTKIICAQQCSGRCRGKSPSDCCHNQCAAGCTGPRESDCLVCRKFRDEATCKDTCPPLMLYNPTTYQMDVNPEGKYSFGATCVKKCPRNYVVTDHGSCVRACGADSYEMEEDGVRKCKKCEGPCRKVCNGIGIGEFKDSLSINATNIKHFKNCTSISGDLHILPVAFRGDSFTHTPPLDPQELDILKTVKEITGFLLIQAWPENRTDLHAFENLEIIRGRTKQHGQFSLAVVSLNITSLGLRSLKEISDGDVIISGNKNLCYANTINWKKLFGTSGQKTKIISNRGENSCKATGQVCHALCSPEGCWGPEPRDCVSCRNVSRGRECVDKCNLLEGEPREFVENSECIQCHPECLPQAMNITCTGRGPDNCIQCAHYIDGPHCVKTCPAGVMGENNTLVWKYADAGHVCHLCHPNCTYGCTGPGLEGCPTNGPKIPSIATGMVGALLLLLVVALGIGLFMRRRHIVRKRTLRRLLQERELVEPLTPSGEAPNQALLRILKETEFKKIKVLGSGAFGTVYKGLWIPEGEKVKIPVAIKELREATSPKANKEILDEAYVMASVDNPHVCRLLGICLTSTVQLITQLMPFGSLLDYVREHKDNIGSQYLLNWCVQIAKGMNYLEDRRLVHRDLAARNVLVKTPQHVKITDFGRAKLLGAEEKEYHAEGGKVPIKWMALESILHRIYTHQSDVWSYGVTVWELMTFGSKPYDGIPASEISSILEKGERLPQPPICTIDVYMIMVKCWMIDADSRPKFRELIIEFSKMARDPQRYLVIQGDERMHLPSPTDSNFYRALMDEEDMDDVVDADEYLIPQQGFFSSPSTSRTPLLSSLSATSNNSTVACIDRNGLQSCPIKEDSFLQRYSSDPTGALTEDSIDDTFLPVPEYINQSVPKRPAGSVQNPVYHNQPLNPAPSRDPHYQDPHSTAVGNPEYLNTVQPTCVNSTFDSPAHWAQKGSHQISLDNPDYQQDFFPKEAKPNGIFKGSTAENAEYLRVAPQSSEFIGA
The target in another experiment is Ba/F3-EGFR-insSVD cells (Homo sapiens, UniProt P00533, DUP768-770, cells depend on it). In words: Ba/F3 cell survival assay (Cell Titer-Glo), EGFR-insSVD. Type of experiment: cell-based. Particulars: without IL-3, with 10 ng/mL EGF, 48 h; read-out: BA/F3 (insSVD) IC50. The essentials:
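Ba/F3 cells stably expressing WT EGFR or EGFR-insSVD from retroviral transduction were grown without IL-3 on 10 ng/mL EGF. Cells were plated at 4000 cells/well, treated with compound for 48 h at 37° C, and viability was read by CellTiter-Glo luminescence.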
In general terms: Cellular ATP, detected with luciferase, serves as a proxy for viable cell number.

The next experiment addresses T1, Bub1 (Homo sapiens, UniProt O43683).
T1 construct: catalytic domain of human Bub1 (amino acids 704-1085); His6 (N); made in house; host or cells: Hi5 insect cells
In words: Bub1 TR-FRET high ATP kinase assay. Type of experiment: biochemical. Particulars: 2 mM ATP. A digest of the protocol:
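Recombinant His6-tagged human Bub1 catalytic domain (aa 704-1085), from Hi5 insect cells, phosphorylating a biotinylated peptide substrate at high ATP concentration. TR-FRET read-out.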

The mark [3] stands for this setting: Bub1 high ATP (2 mM) IC50 [mol/l].

T1 sequence (O43683 704-1085): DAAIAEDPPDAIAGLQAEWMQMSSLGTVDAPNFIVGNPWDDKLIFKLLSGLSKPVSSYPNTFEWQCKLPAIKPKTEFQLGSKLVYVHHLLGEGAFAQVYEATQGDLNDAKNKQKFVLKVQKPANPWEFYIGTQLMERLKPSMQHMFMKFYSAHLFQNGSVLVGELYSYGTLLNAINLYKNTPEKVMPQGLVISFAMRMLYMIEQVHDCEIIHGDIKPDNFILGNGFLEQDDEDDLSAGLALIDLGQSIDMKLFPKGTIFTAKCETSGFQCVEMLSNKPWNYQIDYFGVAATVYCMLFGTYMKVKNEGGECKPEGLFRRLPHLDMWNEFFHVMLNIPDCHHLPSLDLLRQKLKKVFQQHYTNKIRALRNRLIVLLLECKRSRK
Sequence of Ba/F3-ERBB2-A775_G776insYVMA cells (P04626 with tags, fused parts or gaps DUP772-775): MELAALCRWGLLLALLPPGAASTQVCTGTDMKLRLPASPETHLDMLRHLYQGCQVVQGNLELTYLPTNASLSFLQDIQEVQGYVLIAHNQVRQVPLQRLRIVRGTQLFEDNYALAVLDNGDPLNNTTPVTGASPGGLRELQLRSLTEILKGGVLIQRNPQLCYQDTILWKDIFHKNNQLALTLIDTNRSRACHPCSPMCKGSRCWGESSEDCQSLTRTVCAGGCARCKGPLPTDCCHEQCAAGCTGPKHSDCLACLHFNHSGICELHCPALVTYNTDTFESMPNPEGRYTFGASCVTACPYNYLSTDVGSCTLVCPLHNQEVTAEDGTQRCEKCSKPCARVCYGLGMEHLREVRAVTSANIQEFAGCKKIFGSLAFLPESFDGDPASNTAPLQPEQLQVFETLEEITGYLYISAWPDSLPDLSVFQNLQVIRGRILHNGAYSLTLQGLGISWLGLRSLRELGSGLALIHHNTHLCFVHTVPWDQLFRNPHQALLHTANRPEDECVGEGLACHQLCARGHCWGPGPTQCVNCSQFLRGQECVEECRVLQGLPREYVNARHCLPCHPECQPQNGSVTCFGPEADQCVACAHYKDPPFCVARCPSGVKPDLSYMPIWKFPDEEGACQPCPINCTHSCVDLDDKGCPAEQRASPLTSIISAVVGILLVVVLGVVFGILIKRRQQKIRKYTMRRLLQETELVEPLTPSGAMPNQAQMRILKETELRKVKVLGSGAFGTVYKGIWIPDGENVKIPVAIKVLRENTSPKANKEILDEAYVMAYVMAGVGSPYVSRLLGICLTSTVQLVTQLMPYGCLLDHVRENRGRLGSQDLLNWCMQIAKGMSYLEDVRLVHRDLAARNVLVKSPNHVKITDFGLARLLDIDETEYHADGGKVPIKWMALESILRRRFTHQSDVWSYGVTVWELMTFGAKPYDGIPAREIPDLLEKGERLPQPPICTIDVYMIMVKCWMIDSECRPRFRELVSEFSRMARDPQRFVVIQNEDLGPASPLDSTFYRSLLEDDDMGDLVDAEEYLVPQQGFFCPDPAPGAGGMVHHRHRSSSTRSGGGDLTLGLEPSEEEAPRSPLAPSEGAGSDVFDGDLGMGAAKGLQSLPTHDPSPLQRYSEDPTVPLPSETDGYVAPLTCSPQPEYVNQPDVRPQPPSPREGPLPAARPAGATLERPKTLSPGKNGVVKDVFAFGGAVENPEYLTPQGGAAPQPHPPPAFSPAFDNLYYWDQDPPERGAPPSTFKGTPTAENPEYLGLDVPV
Sequence of Ba/F3-EGFR-insSVD cells (P00533 with tags, fused parts or gaps DUP768-770): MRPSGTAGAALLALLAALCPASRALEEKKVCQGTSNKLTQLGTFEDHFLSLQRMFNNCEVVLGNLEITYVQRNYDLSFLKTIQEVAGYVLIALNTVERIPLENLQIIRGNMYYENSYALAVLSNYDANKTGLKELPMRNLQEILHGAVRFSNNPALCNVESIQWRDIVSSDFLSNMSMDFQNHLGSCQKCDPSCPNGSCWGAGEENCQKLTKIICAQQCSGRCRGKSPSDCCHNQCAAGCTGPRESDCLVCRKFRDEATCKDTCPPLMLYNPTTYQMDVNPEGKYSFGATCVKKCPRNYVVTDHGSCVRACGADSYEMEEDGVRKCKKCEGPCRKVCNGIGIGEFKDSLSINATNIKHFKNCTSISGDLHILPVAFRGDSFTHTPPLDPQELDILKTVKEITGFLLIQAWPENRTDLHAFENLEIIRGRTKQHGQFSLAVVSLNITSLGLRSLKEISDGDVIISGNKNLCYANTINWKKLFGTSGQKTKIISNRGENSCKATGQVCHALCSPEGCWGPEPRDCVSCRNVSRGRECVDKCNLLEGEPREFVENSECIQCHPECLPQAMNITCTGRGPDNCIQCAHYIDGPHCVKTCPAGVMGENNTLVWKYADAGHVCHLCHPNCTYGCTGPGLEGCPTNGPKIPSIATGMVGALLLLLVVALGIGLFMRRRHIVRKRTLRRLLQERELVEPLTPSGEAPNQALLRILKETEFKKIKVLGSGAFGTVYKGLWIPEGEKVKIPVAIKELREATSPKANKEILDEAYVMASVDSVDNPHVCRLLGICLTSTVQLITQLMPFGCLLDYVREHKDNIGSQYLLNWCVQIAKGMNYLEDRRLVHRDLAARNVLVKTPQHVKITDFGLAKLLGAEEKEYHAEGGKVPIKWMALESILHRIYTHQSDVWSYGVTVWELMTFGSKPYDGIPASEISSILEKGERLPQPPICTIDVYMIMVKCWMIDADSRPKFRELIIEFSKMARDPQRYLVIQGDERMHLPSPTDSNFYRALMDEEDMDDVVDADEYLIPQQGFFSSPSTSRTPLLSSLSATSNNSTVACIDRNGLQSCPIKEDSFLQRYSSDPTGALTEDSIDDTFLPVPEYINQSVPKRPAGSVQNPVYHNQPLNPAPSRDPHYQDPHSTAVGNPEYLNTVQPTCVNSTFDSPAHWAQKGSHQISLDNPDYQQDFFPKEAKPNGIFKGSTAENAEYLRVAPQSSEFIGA

In the case of `COc1c(Cl)cccc1Nc1c(-c2ccncc2OCC2COC(C)(C)CO2)[nH]c2c1C(=O)NCC2` (single isomer, unassigned) [Example 32, 3-(3-chloro-2-methoxyanilino)-2-{3-[(5,5-dimethyl-1,4-dioxan-2-yl)methoxy]pyridin-4-yl}-1,5,6,7-tetrahydro-4H-pyrrolo[3,2-c]pyridin-4-one], the results for the GI50 in experiment [1] and in experiment [2] were 0.0167 µM and 0.00112 µM, respectively.

As to `Cc1c(Cl)cccc1Nc1c(-c2ccncc2OCC2COC(C)(C)CO2)[nH]c2c1C(=O)NCC2` (single isomer, unassigned) [Example 46, 3-(3-chloro-2-methyl-anilino)-2-[3-[(5,5-dimethyl-1,4-dioxan-2-yl)methoxy]-4-pyridyl]-1,5,6,7-tetrahydropyrrolo[3,2-c]pyridin-4-one], the GI50 is 0.011 µM in experiment [1] and 0.0101 µM on Ba/F3-EGFR-insSVD cells. The pIC50 against Bub1 (setting [3]) is 4.89.

For the compound `Cc1c(F)cccc1Nc1c(-c2ccncc2OCC2COCCO2)[nH]c2c1C(=O)NCC2` (single isomer, unassigned) [Example 48, 2-[3-(1,4-dioxan-2-ylmethoxy)-4-pyridyl]-3-(3-fluoro-2-methyl-anilino)-1,5,6,7-tetrahydropyrrolo[3,2-c]pyridin-4-one], the GI50 amounted to 0.0398 µM in experiment [1] and 0.0188 µM on Ba/F3-EGFR-insSVD cells. Further, at Bub1 (setting [3]), the pIC50 was 4.91.

Take `CCc1c(Cl)cccc1Nc1c(-c2ccncc2OC[C@@H]2CN(C)CCO2)[nH]c2c1C(=O)NCC2` [Example 56, 3-(3-chloro-2-ethylanilino)-2-(3-{[(2S)-4-methylmorpholin-2-yl]methoxy}pyridin-4-yl)-1,5,6,7-tetrahydro-4H-pyrrolo[3,2-c]pyridin-4-one]: the GI50 in experiment [1] came out at 0.0135 µM; on Ba/F3-EGFR-insSVD cells it was 0.0119 µM; in experiment [2], 0.00131 µM. For the same compound, the pIC50 against Bub1 (setting [3]) was 4.78.

For `COc1c(F)cccc1Nc1c(-c2ccncc2OC[C@@H]2COCCN2C)[nH]c2c1C(=O)NCC2` [Example 20, 3-(3-fluoro-2-methoxyanilino)-2-(3-{[(3S)-4-methylmorpholin-3-yl]methoxy}pyridin-4-yl)-1,5,6,7-tetrahydro-4H-pyrrolo[3,2-c]pyridin-4-one], the GI50 in experiment [1] turned out to be 0.0235 µM; on Ba/F3-EGFR-insSVD cells, 0.00825 µM; in experiment [2], 0.000791 µM. At Bub1 (setting [3]), this compound showed a pIC50 of 5.02.

For the compound `COc1c(Cl)cccc1Nc1c(-c2ccncc2OC[C@@H]2COCCN2C)[nH]c2c1C(=O)NCC2` [Example 21, 3-(3-chloro-2-methoxyanilino)-2-(3-{[(3S)-4-methylmorpholin-3-yl]methoxy}pyridin-4-yl)-1,5,6,7-tetrahydro-4H-pyrrolo[3,2-c]pyridin-4-one], the GI50 in experiment [1] is 0.0134 µM; on Ba/F3-EGFR-insSVD cells it was 0.00349 µM; in experiment [2] it was 0.000444 µM. The compound also showed a pIC50 against Bub1 (setting [3]) of 5.42.

As for `COc1c(F)cccc1Nc1c(-c2ccncc2OCC2CN(C)CCO2)[nH]c2c1C(=O)NCC2` (single isomer, unassigned) [Example 14, 3-(3-fluoro-2-methoxyanilino)-2-{3-[(4-methylmorpholin-2-yl)methoxy]pyridin-4-yl}-1,5,6,7-tetrahydro-4H-pyrrolo[3,2-c]pyridin-4-one], the GI50 came to 0.0136 µM in experiment [1], 0.0105 µM on Ba/F3-EGFR-insSVD cells and 0.00191 µM in experiment [2]. For the same compound, the pIC50 on Bub1 (read-out: Bub1 high ATP (2 mM) IC50 [mol/l]) is below 4.70.

For `Cc1c(Cl)cccc1Nc1c(-c2ccncc2OC[C@@H]2CN(C)CCO2)[nH]c2c1C(=O)NCC2` [Example 42, 3-(3-chloro-2-methylanilino)-2-(3-{[(2S)-4-methylmorpholin-2-yl]methoxy}pyridin-4-yl)-1,5,6,7-tetrahydro-4H-pyrrolo[3,2-c]pyridin-4-one], the GI50 in experiment [1] stood at 0.0132 µM; on Ba/F3-EGFR-insSVD cells it was 0.0198 µM; in experiment [2] it was 0.00163 µM. The compound also had a pIC50 against Bub1 (setting [3]) below 4.70.

Regarding `Cc1c(Cl)cccc1Nc1c(-c2ccncc2OC[C@H]2COCCO2)[nH]c2c1C(=O)NCC2` (single isomer, unassigned) [Example 50], the GI50 was 0.0103 µM in experiment [1], 0.00882 µM at Ba/F3-EGFR-insSVD cells and 0.0016 µM in experiment [2]. At Bub1 (setting [3]), the pIC50 was 5.45.

Consider `COc1c(Cl)cccc1Nc1c(-c2ccncc2OC[C@@H]2COCCO2)[nH]c2c1C(=O)NCC2` (single isomer, unassigned) [Example 2], for which the values for the GI50 (in experiment [1]; at Ba/F3-EGFR-insSVD cells; in experiment [2]) were 0.00831 µM, 0.00712 µM and 0.000603 µM, respectively. For the same compound, at Bub1 (setting [3]), the pIC50 is 5.22.

With `COc1c(F)cccc1Nc1c(-c2ccncc2OCC2COCCO2)[nH]c2c1C(=O)NCC2` (single isomer, unassigned) [Example 5, 2-{3-[(1,4-dioxan-2-yl)methoxy]pyridin-4-yl}-3-(3-fluoro-2-methoxyanilino)-1,5,6,7-tetrahydro-4H-pyrrolo[3,2-c]pyridin-4-one], the GI50 at Ba/F3-EGFR-insSVD cells is 0.00973 µM; in experiment [2] it was 0.00267 µM. Further, the pIC50 against Bub1 (setting [3]) was 4.89.

`O=C1NCCc2[nH]c(-c3ccncc3OCC3COCCO3)c(Nc3cccc(Cl)c3Cl)c21` (single isomer, unassigned) [Example 8, 3-(2,3-dichloroanilino)-2-{3-[(1,4-dioxan-2-yl)methoxy]pyridin-4-yl}-1,5,6,7-tetrahydro-4H-pyrrolo[3,2-c]pyridin-4-one]: the values for the GI50 (in experiment [1]; on Ba/F3-EGFR-insSVD cells; in experiment [2]) were 0.0131 µM, 0.00818 µM and 0.0012 µM, respectively. Further, the pIC50 on Bub1 (setting [3]) was 5.10.

The record behind these values is US12679836B2, “4H-pyrrolo[3,2-c]pyridin-4-one compounds” (Bayer Aktiengesellschaft, priority 2019, dated 2026).
